“Also recorded” adds a separate entry of the source.
Assays:
[1] = molecular target: T1, Horseradish peroxidase (HRP) (Armoracia rusticana, UniProt P00433); assay: HRP-catalyzed oxidation of L012 (chemiluminescence); assay type: biochemical
T1 construct: purchased Merck (Darmstadt, Germany)
T1 sequence (P00433 31-338 limits assumed): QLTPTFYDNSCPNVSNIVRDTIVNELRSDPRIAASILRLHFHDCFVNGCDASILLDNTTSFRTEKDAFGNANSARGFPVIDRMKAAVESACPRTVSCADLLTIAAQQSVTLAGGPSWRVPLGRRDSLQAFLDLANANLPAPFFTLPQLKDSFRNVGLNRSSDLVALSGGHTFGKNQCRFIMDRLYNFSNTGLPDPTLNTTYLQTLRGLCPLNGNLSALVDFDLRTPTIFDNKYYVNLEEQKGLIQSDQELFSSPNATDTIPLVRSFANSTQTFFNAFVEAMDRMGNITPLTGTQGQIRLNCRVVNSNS
Description: […] (HRP) reacts with hydrogen peroxide (H2O2), yielding “compound I (HRP^+.-Fe (IV=O))”, which is a reactive intermediate of HRP that is able to oxidize any potential reducing agent. Briefly, 2 μL of compound or reference molecule (ellagic acid) were incubated in phosphate buffer at pH 7.4 (153 μL, 50 mM) containing 5 μL HRP (100 µg/L), 20 μL L0-12 (10^−3 M), and 20 μL H2O2 (1 mM), and the chemiluminescence was immediately measured using a Fluoroskan Ascent 96-plate reader (ThermoLabsystem, Finland) at 37 °C for 30 min [32, 34]. The analysis was conducted in a 96-well microtiter plate. All the assays were performed in triplicate and repeated at least twice (N = 2; n = 6). The relative activity in terms of inhibition percentage of the tested compound or reference (ellagic acid) was compared to a control in the presence of DMSO taken as a solvent. The inhibition percentage was calculated using a similar formula (Equation (1)) as described above.

[2] = molecular target: T2, human myeloperoxidase (MPO) (Homo sapiens, UniProt P05164); assay: MPO activity by SIEFED assay; assay type: biochemical
T2 construct: purchased Calbiochem Millipore
T2 sequence (P05164 49-745): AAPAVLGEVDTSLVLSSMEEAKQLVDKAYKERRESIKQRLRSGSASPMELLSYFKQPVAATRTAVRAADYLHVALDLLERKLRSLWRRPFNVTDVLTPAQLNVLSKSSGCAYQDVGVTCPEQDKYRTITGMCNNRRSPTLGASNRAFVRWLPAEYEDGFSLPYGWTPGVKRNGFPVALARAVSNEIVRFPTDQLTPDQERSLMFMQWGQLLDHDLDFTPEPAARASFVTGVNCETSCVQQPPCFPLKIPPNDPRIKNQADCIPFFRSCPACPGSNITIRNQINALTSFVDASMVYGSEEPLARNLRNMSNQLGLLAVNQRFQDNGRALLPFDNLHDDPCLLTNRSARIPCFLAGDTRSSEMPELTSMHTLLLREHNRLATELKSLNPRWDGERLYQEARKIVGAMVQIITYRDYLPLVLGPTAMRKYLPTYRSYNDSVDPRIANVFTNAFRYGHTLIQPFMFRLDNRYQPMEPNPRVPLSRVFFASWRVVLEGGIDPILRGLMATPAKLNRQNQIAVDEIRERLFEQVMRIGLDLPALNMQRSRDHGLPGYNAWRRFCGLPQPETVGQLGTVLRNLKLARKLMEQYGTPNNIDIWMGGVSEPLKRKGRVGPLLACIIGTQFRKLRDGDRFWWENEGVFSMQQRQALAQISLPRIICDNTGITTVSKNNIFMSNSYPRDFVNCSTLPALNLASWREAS
Description: Measurement of the peroxidase activity of MPO was performed by a classical enzymatic assay and by SIEFED assay as described by Nyssen et al.. The MPO solution was prepared with purified human MPO in dilution buffer (PBS 20 mM at pH 7.4 with 5 g/L BSA and 0.1% Tween-20). The solutions of EA or analogue, at final concentrations ranging from 10^−8 M to 10^−5 M, were incubated for 10 min with human MPO at a final concentration of 5 mU/mL before further use. The revelation of MPO activity was performed by monitoring the enzyme-catalyzed oxidation of Amplex Red in the presence of H2O2 (10 μM) and nitrite (4.5 mM) in phosphate buffer at pH 7.4.
Samples with MPO and various concentrations of […] were prepared and incubated as with the classical assay. An amount of 100 μL of each mixture (MPO alone or MPO + EA/DMSO) was then loaded into the wells of a SIEFED microtiter plate coated with rabbit polyclonal antibodies (3 μg/mL) against human MPO and incubated for 2 h at 37 °C in darkness. After washing up the wells, the activity of the enzyme captured by the antibodies was measured by adding 10 μL sodium nitrite solution (4.5 mM, final concentration) and 100 μL of a reactional solution containing 10 μM H2O2 and 40 μM Amplex® in phosphate buffer (50 mM) at pH 7.4. The oxidation of Amplex® Red into the fluorescent adduct resorufin (λexcitation = 544 nm; λemission = 590 nm) was monitored for 30 min at 37 °C with a fluorescent plate reader (Fluoroskan Ascent, Fisher Scientific). As for the MPO direct assay, a control assay set as the relative value of MPO activity was performed with purified MPO in the presence of PBS instead of the samples of EA or analogue dissolved in DMSO. In this SIEFED assay, MPO was bonded by the antibodies into the wells, and EA/analogue was discarded in the washing step before starting the measurement of the enzymatic activity. For both MPO assays, the inhibition percentage was calculated using a similar formula (Equation (1)) as described above.

[3] = DPPH radical scavenging assay
Description: The DPPH assay was performed according to the method developed by Brand-Williams et al., though slightly modified. A solution of 1 mM DPPH in absolute methanol was stirred for 40 min. Absorbance of the solution was adjusted to 0.650 ± 0.020 at 517 nm using fresh absolute methanol. For replicates, the DPPH assay was performed using a microplate reader. For this, 2 µL of EA taken as a standard or sample (EA analogue) were mixed with 198 µL of DPPH solution and incubated for 30 min in the dark covered with aluminum foil. When reacting with an antioxidant, the DPPH• radical is converted into DPPH, and its color changes from purple to yellow. The antioxidant effect may be easily evaluated by observing the decrease in visible absorption. The absorbance decrease was monitored at 510 nm for 30 min with a Multiskan Ascent 96-plate reader (ThermoLabsystem, Finland). A control consisted of 2 µL of DMSO in 198 µL of DPPH solution. A similar formula (Equation (1)) was applied to determine the DPPH radical-scavenging activity.

IC50 [1] [µM]	IC50 [3] [µM]	Structure (SMILES)	HRP inhibiting activity (in words) [1]	MPO activity, SIEFED assay (in words) [2]	DPPH inhibition percentage ([3]; at the highest concentration) [%]
–	–	CN(C)C(=O)Oc1cc2c(=O)oc3c(OC(=O)N(C)C)c(OC(=O)N(C)C)cc4c(=O)oc(c1OC(=O)N(C)C)c2c34 [compound 6, Sevellagic acid]	lack of effect	weak activity or the absence of inhibition activity	−3
3.55 ± 0.37	5.22 ± 0.05	CCOC1Oc2cc(C(=O)OC)cc(O)c2O1 (stereo not drawn) [compound 11, methyl 2-ethoxy-7-hydroxybenzo[d][1,3]dioxole-5-carboxylate]	–	activator of MPO activity; also recorded: promote, rather than inhibit, MPO activity	–
